Experimental findings from ChEMBL document CHEMBL1127660, “Isolation, structural determination, and biological activity of 6 alpha-hydroxytaxol, the principal human metabolite of taxol” (J Med Chem, 1994) are described below.

One assay concerns MOLT-4. Nature of the assay: The compound was tested for inhibition concentration against MOLT-4 cell line. Type of assay: functional, cell-based. Conditions: Homo sapiens.
The next assay deals with U-937. Nature of the assay: The compound was tested for inhibition concentration against U-937 cell line. Format: functional, cell-based. The following applies: Homo sapiens.

Usually IC50 stands for the concentration at which inhibition is half-maximal. A high value points to lower potency.

Regarding `CC(=O)O[C@H]1C(=O)[C@@]2(C)[C@H]([C@H](OC(=O)c3ccccc3)[C@]3(O)C[C@H](OC(=O)[C@H](O)[C@@H](NC(=O)c4ccccc4)c4ccccc4)C(C)=C1C3(C)C)[C@]1(OC(C)=O)CO[C@@H]1C[C@@H]2O` [PACLITAXEL], the IC50 with MOLT-4 stood at 1.6 nM; in the assay on U-937 it was 1 nM.
